Test results published in the supplement of paper PMC10307832.

How the values were obtained:
Experiment in all cases: relative viability (nuclei count vs DMSO), 5 days (fraction); higher = more cells survive
[1] = compound: CCN(CCO)CCCC(C)Nc1ccnc2cc(Cl)ccc12 [Hydroxychloroquine] + Cc1nc(NC(=O)N2CCC[C@H]2C(N)=O)sc1-c1ccnc(C(C)(C)C(F)(F)F)c1 [Alpelisib] (partner 2 µM)
Summary of the method: (§1)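 Values are medians from duplicate plates. Each reflects relative viability, defined as the nuclei count of treated wells over that of vehicle wells. Lung cancer cell lines in 1536-well plates were pin-tool dosed one day after seeding with one drug alone or with a fixed anchor-drug dose plus five library-drug doses (not always all listed) in √10 steps, then fixed, stained and imaged at 4× after 5 days.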

[2] = compound: CCN(CCO)CCCC(C)Nc1ccnc2cc(Cl)ccc12 [Hydroxychloroquine] + Nc1ncn([C@H]2C[C@H](O)[C@@H](CO)O2)c(=O)n1 [Decitabine] (partner 2 µM)
Summary of the method: as §1

[3] = compound: CCN(CCO)CCCC(C)Nc1ccnc2cc(Cl)ccc12 [Hydroxychloroquine] + CS(=O)(=O)N1CCN(Cc2cc3nc(-c4cccc5[nH]ncc45)nc(N4CCOCC4)c3s2)CC1 [Pictilisib] (partner 1 µM)
Summary of the method: as §1

[4] = compound: CCN(CCO)CCCC(C)Nc1ccnc2cc(Cl)ccc12 [Hydroxychloroquine] + C[C@]1(O)C[C@@H](c2nc(-c3ccc4ccc(-c5ccccc5)nc4c3)c3c(N)nccn32)C1 [Linsitinib] (partner 1 µM)
Summary of the method: as §1

Cell Line	relative viability ([1]; first compound 0.5 µM)	relative viability ([1]; first compound 1.581 µM)	relative viability ([1]; first compound 5 µM)	relative viability ([1]; first compound 15.81 µM)	relative viability ([1]; first compound 50 µM)	relative viability ([2]; first compound 0.5 µM)	relative viability ([2]; first compound 1.581 µM)	relative viability ([2]; first compound 5 µM)	relative viability ([2]; first compound 15.81 µM)	relative viability ([2]; first compound 50 µM)	relative viability ([3]; first compound 0.5 µM)	relative viability ([3]; first compound 1.581 µM)	relative viability ([3]; first compound 5 µM)	relative viability ([3]; first compound 15.81 µM)	relative viability ([3]; first compound 50 µM)	relative viability ([4]; first compound 0.5 µM)	relative viability ([4]; first compound 1.581 µM)	relative viability ([4]; first compound 5 µM)	relative viability ([4]; first compound 15.81 µM)	relative viability ([4]; first compound 50 µM)
COR-L 105	1.13	1	1.08	0.765	0.87	0.669	0.542	0.588	0.583	0.605	0.392	0.435	0.425	0.325	0.338	1.08	1	0.905	0.851	0.814
LK-2	1.02	–	1.26	1.27	1.24	0.308	0.297	0.36	0.268	0.284	0.607	–	0.58	0.62	0.558	0.473	0.438	0.843	0.607	0.696
NCI-H838	1.04	0.946	0.983	1.04	1.08	0.472	0.458	0.437	0.429	0.452	0.509	0.465	0.398	0.465	0.53	0.929	0.91	1.01	0.93	1.04
SK-LU-1	0.964	0.852	1.05	1.06	1.03	0.605	0.631	0.664	0.557	0.762	0.567	0.529	0.568	0.474	0.543	1.11	1.09	1.04	1.19	0.982
NCI-H2023	0.547	0.47	0.636	0.605	0.601	0.231	0.209	0.214	0.227	0.211	0.332	0.23	0.23	0.224	0.249	0.618	0.65	0.697	0.643	0.728
NCI-H322M	0.864	0.814	0.864	0.758	0.769	0.66	0.698	0.732	0.665	0.637	0.533	0.438	0.475	0.515	0.524	0.891	1.06	0.961	0.945	0.972
NCI-H1666	0.99	0.996	0.873	0.882	0.668	0.707	0.691	0.759	0.792	0.635	0.519	0.409	0.377	0.477	0.402	0.764	0.773	0.771	0.813	0.724
NCI-H1648	–	–	–	–	–	0.51	0.447	0.512	0.518	0.484	–	–	–	–	–	–	–	–	–	–
NCI-H2087	1.03	1.06	0.87	1.08	1.02	0.265	0.258	0.242	0.219	0.294	0.891	0.879	0.798	0.919	0.721	1.01	0.887	0.893	0.951	0.965
LU99A	0.481	0.364	0.534	0.498	0.619	0.864	0.795	0.877	1.01	1.01	0.367	0.288	0.337	0.28	0.362	0.525	0.478	0.437	0.527	0.503
HCC-366	0.569	0.375	0.368	0.434	0.482	0.314	0.348	0.315	0.316	0.34	0.202	0.13	0.198	0.18	0.148	0.573	0.769	0.613	0.627	0.796
EKVX	0.964	0.867	0.844	0.846	0.912	0.346	0.308	0.334	0.407	0.372	0.458	0.383	0.476	0.427	0.476	0.929	1.01	1.09	0.955	1.05
NCI-H522	–	–	–	–	–	0.689	–	0.566	0.676	0.59	–	–	–	–	–	–	–	–	–	–
NCI-H1755	0.925	0.877	0.908	0.956	0.911	0.707	0.644	0.727	0.694	0.656	0.431	0.273	0.374	0.425	0.379	1.02	0.838	0.933	0.972	0.878
NCI-H650	1.08	1.17	–	1.1	1.17	0.347	0.31	0.361	0.31	0.307	0.867	0.758	–	1.01	0.827	0.907	0.802	–	0.828	0.818
LC-2-ad	0.873	0.851	0.904	0.873	0.93	0.732	0.777	0.776	0.744	0.854	0.321	0.395	0.463	0.546	0.436	0.92	0.782	0.93	0.863	0.818
NCI-H1793	0.832	0.738	0.635	0.736	0.749	0.542	0.466	0.42	0.412	0.259	0.349	0.308	0.415	0.307	0.364	0.774	0.758	1.06	0.941	0.964
HCC-827	1.05	1.03	0.939	1.03	0.979	0.323	0.302	0.317	0.301	0.279	1.01	0.899	0.755	0.98	1.06	1.01	0.927	0.922	0.956	0.977
HCC-78	0.394	0.299	0.316	0.331	0.31	0.655	0.638	0.651	0.676	0.73	0.21	0.176	0.221	0.224	0.165	0.49	0.728	0.304	0.516	0.455

Cell Line	relative viability ([1]; first compound 0.5 µM)	relative viability ([1]; first compound 1.581 µM)	relative viability ([1]; first compound 5 µM)	relative viability ([1]; first compound 15.81 µM)	relative viability ([1]; first compound 50 µM)	relative viability ([2]; first compound 0.5 µM)	relative viability ([2]; first compound 1.581 µM)	relative viability ([2]; first compound 5 µM)	relative viability ([2]; first compound 15.81 µM)	relative viability ([2]; first compound 50 µM)	relative viability ([3]; first compound 0.5 µM)	relative viability ([3]; first compound 1.581 µM)	relative viability ([3]; first compound 5 µM)	relative viability ([3]; first compound 15.81 µM)	relative viability ([3]; first compound 50 µM)	relative viability ([4]; first compound 0.5 µM)	relative viability ([4]; first compound 1.581 µM)	relative viability ([4]; first compound 5 µM)	relative viability ([4]; first compound 15.81 µM)	relative viability ([4]; first compound 50 µM)
NCI-H2085	0.91	0.998	0.973	0.914	0.917	0.623	0.507	0.604	0.606	0.578	0.434	0.509	0.462	0.392	0.472	0.891	0.788	0.938	0.941	0.883
PC-3 [JPC-3]	1.01	1.04	1.06	1	1.02	0.814	0.767	0.805	0.792	0.761	0.79	0.696	0.693	0.674	0.784	0.983	0.948	0.923	1.01	0.979
NCI-H2342	–	–	–	–	–	0.774	0.765	0.782	0.756	0.769	–	–	–	–	–	–	–	–	–	–
A-427	1.06	1.03	1.04	0.956	1.1	0.539	0.551	0.585	0.509	0.479	0.713	0.624	0.674	0.585	0.628	1.13	1.05	1.13	1.09	1.16
H3255	0.759	0.612	0.727	0.675	0.72	0.612	0.536	0.593	0.718	0.592	0.513	0.517	0.462	0.474	0.507	0.946	0.999	0.976	0.944	0.982
HCC-44	0.815	0.838	0.86	0.922	0.902	0.966	0.978	0.974	0.939	0.914	0.475	0.61	0.588	0.552	0.661	0.634	0.682	0.723	0.748	0.774
NCI-H1734	0.674	0.696	0.362	0.781	0.668	0.486	0.482	0.459	0.491	0.497	0.507	0.294	0.462	0.491	0.47	0.817	0.748	0.914	0.894	0.903
NCI-H2228	0.705	0.546	0.682	0.549	0.735	–	–	–	–	–	0.403	0.375	0.339	0.412	0.398	0.958	0.647	0.706	0.632	0.703
ABC-1	1.27	1.03	0.924	0.949	0.942	1.15	1.1	1.09	1.35	0.906	0.75	0.761	0.783	0.815	0.737	1	0.698	0.959	0.759	0.879
COR-L23	0.739	0.813	0.899	0.961	0.906	0.451	0.452	0.397	0.416	0.534	0.585	0.84	0.875	0.899	0.968	0.989	0.872	0.947	0.997	1.02
NCI-H727	0.454	0.58	0.589	0.512	0.526	1.02	0.93	0.839	0.829	0.693	0.389	0.339	0.444	0.325	0.371	0.279	0.276	0.306	0.305	0.357
ChaGo-K-1	–	–	–	–	–	0.515	0.545	0.538	0.496	0.518	0.873	0.506	0.383	0.662	0.64	–	–	–	–	–
NCI-H1650	–	–	–	–	–	0.315	0.391	0.419	0.36	0.36	0.558	0.578	0.49	0.542	0.599	–	–	–	–	–
EBC-1	1.01	0.572	0.784	0.688	0.599	–	–	–	–	–	0.367	0.307	0.374	0.354	0.295	0.953	0.505	0.992	0.769	0.915
NCI-H1703	0.401	0.21	0.326	0.343	0.367	–	–	–	–	–	0.272	0.241	0.224	0.263	0.216	0.601	0.418	0.8	0.614	1.09
CAL-12T	1.24	1.16	1.32	1.42	1.69	–	–	–	–	–	0.793	–	0.382	0.35	0.598	0.916	0.75	0.773	0.866	0.886
NCI-H1563	0.908	0.877	1	0.888	0.871	–	–	–	–	–	0.694	0.605	0.574	0.627	0.596	1.03	1.04	1.18	1.06	1.17
NCI-H2170	0.832	0.797	0.844	0.801	0.835	0.438	0.449	0.396	0.438	0.457	0.327	0.294	0.282	0.284	0.333	–	–	–	–	–
